Experimental findings from patent US20200339511A1, “Substituted indoline derivatives as dengue viral replication inhibitors” (priority 2016, published 2020) are described below.

In one series the test system is DENV-4 strain H241. In words: Tetravalent RT-qPCR assay, serotype 4. Format: cell-based, Dengue virus. Conditions: RT-qPCR serotype 4 H241, Protocol A, Vero cells, day 3, read-out: EC50. The procedure: (§1) Tetravalent reverse transcriptase quantitative-PCR (RT-qPCR) assay The antiviral activity of the compounds of the invention was tested against DENV-1 strain TC974#666 (NCPV), DENV-2 strain 16681, DENV-3 strain H87 (NCPV) and DENV-4 strain H241 (NCPV) in a RT-qPCR assay. Therefore, Vero cells were infected with either DENV-1, or -2, or -3, or -4 in the presence or absence of test compounds. At day 3 post-infection, the cells were lysed and cell lysates were used to prepare cDNA of both a viral target (the 3′UTR of DENV; Table 2) and a cellular reference gene (β-actin, Table 2). Subsequently, a duplex real time PCR was performed on a Lightcycler480 instrument. The generated Cp value is inversely proportional to the amount of RNA expression of these targets. Inhibition of DENV replication by a test compound results in a shift of Cp's for the 3′UTR gene. On the other hand, if a test compound is toxic to the cells, a similar effect on β-actin expression will be observed. The comparative ΔΔCp method is used to calculate EC50, which is based on the relative gene expression of the target gene (3′UTR) normalized with the cellular housekeeping gene (β-actin). In addition, CC50 values are determined based on the Cp values acquired for the housekeeping gene β-actin.
(§2) The culture medium consisted of minimal essential medium supplemented with 2% of heat-inactivated fetal calf serum, 0.04% gentamycin (50mg/mL) and 2 mM of L-glutamine. Vero cells, obtained from ECACC, were suspended in culture medium and 75 μL/well was added in 96-well plates (10000 cells/well), which already contain the antiviral compounds. […] In addition, each plate contains wells which are assigned as virus controls (containing cells and virus in the absence of compound) and cell controls (containing cells in the absence of virus and compound). Once the cells were added in the plates, the plates were incubated in a fully humidified incubator (37° C., 5% CO2) until the next day. Dengue viruses serotype-1, 2, 3 and 4 were diluted in order to obtain a Cp of ˜22-24 in the assay. Therefore, 25 μL of virus suspension was added to all the wells containing test compound and to the wells assigned as virus control. In parallel, 25 μL of culture medium was added to the cell controls. Next, the plates were incubated for 3 days in a fully humidified incubator (37° C., 5% CO2). After 3 days, the supernatant was removed from the wells and the cells were washed twice with ice-cold PBS (˜100 μL). The cell pellets within the 96-well plates were stored at −80° C. for at least 1 day. Next, RNA was extracted using the Cells-to-CT™ lysis kit, according to the manufacturer's guideline (Life Technologies). The cell lysates can be stored at −80° C. or immediately used in the reverse transcription step.
(§3) In preparation of the reverse transcription step, mix A (table 3A) was prepared and 7.57 μL/well was dispensed in a 96-well plate. After addition of 5 μL of the cell lysates, a five minute denaturation step at 75° C. was performed (table 3B). Afterwards, 7.43 μL of mix B was added (table 3C) and the reverse transcription step was initiated (table 3D) to generate cDNA.
(§4) Finally, a RT-qPCR mix was prepared, mix C (table 4A), and 22.02 μL/well was dispensed in 96-well LightCycler qPCR plates to which 3μL of cDNA was added and the qPCR was performed according to the conditions in table 4B on a LightCycler 480.
(§5) Using the LightCycler software and an in-house LIMS system, dose response curves for each compound were calculated and the half maximal effective concentration (EC50) and the half maximal cytotoxic concentration (CC50) were determined (Tables 5-8).
A general note: Real-time PCR tracks product formation cycle by cycle.

The test system of the next series is DENV-1 strain TC974#666. Briefly: Tetravalent RT-qPCR assay, serotype 1. Type of series: cell-based, Dengue virus. Conditions: RT-qPCR serotype 1 TC974#666, Protocol A, Vero cells, day 3. The procedure:
as §1, §2, §3, §4, §5

The subject of a further series is DENV-3 strain H87. In words: Tetravalent RT-qPCR assay, serotype 3. Type of series: cell-based, Dengue virus. Conditions: RT-qPCR serotype 3 H87, Protocol A, Vero cells, day 3. As to the method: as §1, §2, §3, §4, §5
Another series concerns Vero cells. The conditions noted are these: African green monkey.
The next series deals with DENV-2 strain 16681. Briefly: Tetravalent RT-qPCR assay, serotype 2. Type of series: cell-based, Dengue virus. Conditions: RT-qPCR serotype 2 16681, Protocol A, Vero cells, day 3. The procedure:
as §1, §2, §3, §4, §5

The test system of another series is DENV-2 16681 strain. In words: DENV-2 antiviral assay (eGFP-labeled virus in Vero cells). Type of series: cell-based, Dengue virus. The conditions noted are these: DENV-2 16681 eGFP, MOI 0.5, 3 days. The procedure:
The antiviral activity of all the compounds of the invention was tested the against DENV-2 16681 strain which was labeled with enhanced green fluorescent protein (eGPF). The culture medium consists of minimal essential medium supplemented with 2% of heat-inactivated fetal calf serum, 0.04% gentamycin (50 mg/mL) and 2 mM of L-glutamine. Vero cells, obtained from ECACC, were suspended in culture medium and 25 μL was added to 384-well plates (2500 cells/well), which already contain the antiviral compounds. Typically, these plates contain a 5-fold serial dilution of 9 dilution steps of the test compound at 200 times the final concentration in 100% DMSO (200 nL). […] Finally, each plate contains wells which are assigned as virus controls (containing cells and virus in the absence of compound), cell controls (containing cells in the absence of virus and compound) and medium controls (containing medium in the absence of cells, virus and compounds). To the wells assigned as medium control, 25 μL of culture medium was added instead of Vero cells. Once the cells were added to the plates, the plates were incubated for 30 minutes at room temperature to allow the cells to distribute evenly within the wells. Next, the plates were incubated in a fully humidified incubator (37° C., 5% CO2) until the next day. Then, DENV-2 strain 16681, labeled with eGFP, was added at a multiplicity of infection (MOI) of 0.5. Therefore, 15 μL of virus suspension was added to all the wells containing test compound and to the wells assigned as virus control. In parallel, 15 μL of culture medium was added to the medium and cell controls. Next, the plates were incubated for 3 days in a fully humidified incubator (37° C., 5% CO2). At the day of the read out, the eGFP fluorescence was measured using an automated fluorescence microscope at 488 nm (blue laser). Using an in-house LIMS system, inhibition dose response curves for each compound were calculated and the half maximal effective concentration (EC50) was determined. Therefore, the percent inhibition (I) for every test concentration is calculated using the following formula: I=100*(ST-SCC)/(SVC-SCC), ST, SCC and SVC are the amount of eGFP signal in the test compound, cell control and virus control wells, respectively. The EC50 represents the concentration of a compound at which the virus replication is inhibited with 50%, as measured by a 50% reduction of the eGFP fluorescent intensity compared to the virus control. The EC50 is calculated using linear interpolation (Table 1).

Another series can be described thus: in vitro. Conditions: African green monkey.
Setting [1] is: Dengue virus, DENV4, Vero, 72 h.
Setting [2] is: Dengue virus, DENV1, Vero, 72 h.
The mark [3] stands for this setting: Dengue virus, DENV3, Vero, 72 h.
Where [4] appears, read: Dengue virus, DENV2, Vero, 72 h.

Read-outs that look alike come from different tables or passages of the source. A value given as a limit tells only on which side of the number the result lay.

For `COc1cc(NC(C(=O)N2CCc3ccc(C(F)(F)F)cc32)c2ccc(Cl)cc2OC)cc(OCCO)c1` (single isomer, unassigned) [Compound 1B, 2-(4-chloro-2-methoxyphenyl)-2-((3-(2-hydroxyethoxy)-5-methoxyphenyl)amino)-1-(6-(trifluoromethyl)indolin-1-yl)ethanone], the EC50 is 250 nM in the series on DENV-4 strain H241 (setting [1]); 4.4 nM in the series with DENV-1 strain TC974#666 (setting [2]); 56 nM in the series on DENV-3 strain H87 (setting [3]); 3.6 nM in the series with DENV-2 strain 16681 (setting [4]); 3.6 nM with DENV-2 16681 strain. In the series on Vero cells, this compound displayed a CC50 of 12000 nM.

With `COc1cc(NC(C(=O)N2CCc3ccc(OC(F)(F)F)cc32)c2ccc(Cl)cc2)cc(OCCO)c1` (single isomer, unassigned) [Compound 3A, 2-(4-chlorophenyl)-2-((3-(2-hydroxyethoxy)-5-methoxyphenyl)amino)-1-(6-(trifluoromethoxy)indolin-1-yl)ethanone], the CC50 in “in vitro” stood at 9600 nM. For the same compound, the EC50 in the series on DENV-4 strain H241 (setting [1]) is 190 nM; with DENV-1 strain TC974#666 (setting [2]), 3.6 nM; with DENV-3 strain H87 (setting [3]), 29 nM; with DENV-2 strain 16681 (setting [4]), 2.2 nM; in the series with DENV-2 16681 strain, 2.3 nM.

In turn, `COc1cc(NC(C(=O)N2CCc3ccc(C(F)(F)F)cc32)c2ccc(Cl)cc2)cc(OCCO)c1` (single isomer, unassigned) [Compound 4A, 2-(4-chlorophenyl)-2-((3-(2-hydroxyethoxy)-5-methoxyphenyl)amino)-1-(6-(trifluoromethyl)indolin-1-yl)ethanone] returned a CC50 in the series “in vitro” of 12000 nM. For the same compound, the EC50 with DENV-4 strain H241 turned out to be 210 nM; in the series with DENV-1 strain TC974#666, 3.9 nM; in the series on DENV-3 strain H87, 27 nM; in the series with DENV-2 strain 16681 it was 4.3 nM; with DENV-2 16681 strain it was 3.6 nM.

For `COc1cc(NC(C(=O)N2CCc3ccc(C(F)(F)F)cc32)c2ccc(Cl)cc2)cc(OCCO)c1` (single isomer, unassigned) [Compound 4B, 2-(4-chlorophenyl)-2-((3-(2-hydroxyethoxy)-5-methoxyphenyl)amino)-1-(6-(trifluoromethyl)indolin-1-yl)ethanone], the EC50 in the series with DENV-4 strain H241 was more than 2500 nM; with DENV-1 strain TC974#666, 700 nM; in the series with DENV-3 strain H87, more than 1900 nM; in the series with DENV-2 strain 16681, 1000 nM; with DENV-2 16681 strain, 1100 nM. Further, the CC50 with Vero cells turned out to be 14000 nM.

For `COc1cc(NC(C(=O)N2CCc3cc(OC)c(C(F)(F)F)cc32)c2ccc(Cl)cc2F)cc(OCCO)c1` (single isomer, unassigned) [Compound 8B, 2-(4-chloro-2-fluorophenyl)-2-((3-(2-hydroxyethoxy)-5-methoxyphenyl)amino)-1-(5-methoxy-6-(trifluoromethyl)indolin-1-yl)ethanone], the concentration for a half-maximal effect (EC50) was found to be 120 nM with DENV-4 strain H241 (setting [1]); 8.1 nM in the series on DENV-1 strain TC974#666 (setting [2]); 50 nM with DENV-3 strain H87 (setting [3]); 2.3 nM with DENV-2 strain 16681 (setting [4]); 1.9 nM in the series on DENV-2 16681 strain. In addition, in the series with Vero cells, the CC50 is not below 76000 nM.

In the case of `COc1cc(NC(C(=O)N2CCc3c(C)cc(OC(F)(F)F)cc32)c2ccc(Cl)cc2)cc(OCCO)c1` (single isomer, unassigned) [Compound 9B, 2-(4-chlorophenyl)-2-((3-(2-hydroxyethoxy)-5-methoxy-phenyl)amino)-1-(4-methyl-6-(trifluoromethoxy)indolin-1-yl)ethanone], the EC50 in the series with DENV-4 strain H241 (setting [1]) is 110 nM; in the series on DENV-1 strain TC974#666 (setting [2]), 2.7 nM; with DENV-3 strain H87 (setting [3]) it was 16 nM; in the series on DENV-2 strain 16681 (setting [4]), 1.2 nM; in the series on DENV-2 16681 strain, 1.4 nM. The compound further showed a CC50 in the series with Vero cells of 11000 nM.

For `COc1cc(NC(C(=O)N2CCc3c(C)cc(C(F)(F)F)cc32)c2ccc(Cl)cc2)cc(OCCO)c1` (single isomer, unassigned) [Compound 10B, 2-(4-chlorophenyl)-2-((3-(2-hydroxyethoxy)-5-methoxy-phenyl)amino)-1-(4-methyl-6-(trifluoromethyl)indolin-1-yl)ethanone], the EC50 in the series with DENV-4 strain H241 (setting [1]) was found to be 160 nM; in the series with DENV-1 strain TC974#666 (setting [2]) it was 1.7 nM; in the series with DENV-3 strain H87 (setting [3]) it was 16 nM; with DENV-2 strain 16681 (setting [4]), 2.3 nM; in the series with DENV-2 16681 strain it was 2.2 nM. The CC50 in the series on Vero cells amounted to 11000 nM.

As to `COc1cc(NC(C(=O)N2CCc3cc(OC)c(C(F)(F)F)cc32)c2ccc(Cl)cc2OC)cc(OCCO)c1` (single isomer, unassigned) [Compound 11B, 2-(4-chloro-2-methoxyphenyl)-2-((3-(2-hydroxyethoxy)-5-methoxyphenyl)amino)-1-(5-methoxy-6-(trifluoromethyl)indolin-1-yl)ethanone], the EC50 with DENV-4 strain H241 (setting [1]) amounted to 280 nM; with DENV-1 strain TC974#666 (setting [2]), 7.8 nM; with DENV-3 strain H87 (setting [3]), 34 nM; with DENV-2 strain 16681 (setting [4]) it was 2 nM; in the series on DENV-2 16681 strain it was 1.6 nM. Besides, the CC50 in the series on Vero cells is more than 25000 nM.

On to `COc1cc(NC(C(=O)N2CCc3cc(F)c(C(F)(F)F)cc32)c2ccc(Cl)cc2)cc(OCCO)c1` (single isomer, unassigned) [Compound 12A, 2-(4-chlorophenyl)-1-(5-fluoro-6-(trifluoromethyl)indolin-1-yl)-2-((3-(2-hydroxyethoxy)-5-methoxyphenyl)amino)ethanone], for which the CC50 in the series “in vitro” stood at 12000 nM. Moreover, the EC50 with DENV-4 strain H241 (setting [1]) turned out to be 240 nM; in the series with DENV-1 strain TC974#666 (setting [2]), 3.3 nM; in the series with DENV-3 strain H87 (setting [3]), 40 nM; with DENV-2 strain 16681 (setting [4]), 4.4 nM; with DENV-2 16681 strain, 2.3 nM.

One may read the EC50 as the concentration at which the effect is half-maximal.
